Measured values published in BigSolDB 2.1.

CC(C)c1ncc[nH]1
solubility (mole fraction)
Conditions	in 2-butanone	in acetone	in acetonitrile	in ethanol	in ethyl acetate	in isopropanol	in methanol	in n-propanol	in toluene
278.15 K	0.11	0.0906	0.0259	0.189	0.0519	0.0738	0.224	0.0999	0.0215
280.65 K	0.116	0.0946	0.0275	0.196	0.0556	0.0768	0.233	0.104	0.0225
283.15 K	0.121	0.0988	0.0291	0.203	0.0588	0.0801	0.242	0.109	0.0237
285.65 K	0.127	0.103	0.0308	0.21	0.0626	0.0825	0.252	0.114	0.0248
288.15 K	0.133	0.108	0.0325	0.216	0.066	0.0856	0.263	0.117	0.026
290.65 K	0.139	0.111	0.0343	0.226	0.0697	0.0883	0.274	0.121	0.0272
293.15 K	0.145	0.116	0.0361	0.235	0.0737	0.0927	0.285	0.126	0.0287
295.65 K	0.152	0.121	0.0379	0.243	0.0778	0.0965	0.297	0.133	0.0302
298.15 K	0.159	0.127	0.0401	0.253	0.0826	0.101	0.31	0.139	0.0318
300.65 K	0.167	0.133	0.0427	0.263	0.0883	0.105	0.322	0.146	0.0336
303.15 K	0.177	0.14	0.0453	0.273	0.0939	0.11	0.334	0.153	0.0355
305.65 K	0.185	0.146	0.0481	0.282	0.0994	0.115	0.348	0.159	0.0374
308.15 K	0.194	0.153	0.0509	0.294	0.105	0.121	0.361	0.166	0.0394
310.65 K	0.203	0.159	0.0538	0.304	0.112	0.126	0.376	0.173	0.0416
313.15 K	0.213	0.166	0.0568	0.315	0.118	0.132	0.39	0.18	0.0437
